The subject of assay [1] is cultured human mast cells (CHMC). The assay is described as follows: CHMC low cell density IgE activation: tryptase assay. The assay is classed as cell-based. As to conditions: IgE activation. The procedure, abridged: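 Fluorogenic readout of tryptase released into the supernatant (30 min substrate incubation, room temperature) measures degranulation. Cells were plated at low density (1000–1500/well, varied by donor) and triggered with anti-IgE for 30 min at 37 °C.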

The test system is the same in assay [2]. As to the kind of experiment: CHMC low cell density ionomycin activation: tryptase assay. In kind it is cell-based. As to conditions: read-out: LD Tryptase, CHMC, Iono, 3 pt.
The mark [3] stands for this setting: Homo sapiens, Mast cell, low cell density CHMC, tryptase release, 3 pt, read-out: LD Tryptase, CHMC, IgE, 3 pt.
[4] abbreviates: Homo sapiens, Mast cell, low cell density CHMC, tryptase release, 8 pt, read-out: LD Tryptase, CHMC, IgE, 8 pt.
Setting [5] is: Homo sapiens, Mast cell, low cell density CHMC, tryptase release, 3 pt.
The mark [6] stands for this setting: low cell density CHMC, tryptase release, 3 point, read-out: LD Tryptase, CHMC, IgE, 3 pt.
[7] abbreviates: low cell density CHMC, tryptase release, 8 point, read-out: LD Tryptase, CHMC, IgE, 8 pt.
The mark [8] stands for this setting: low cell density CHMC, tryptase release, 3 point.
Setting [9] is: Homo sapiens, Mast cell, low cell density CHMC, tryptase, 3 pt, read-out: LD Tryptase, CHMC, IgE, 3 pt.
[10] abbreviates: Homo sapiens, Mast cell, low cell density CHMC, tryptase, 3 pt.
Setting [11] is: Homo sapiens, Mast cell, low cell density, 3 pt, read-out: LD Tryptase, CHMC, IgE, 3 pt.
[12] abbreviates: Homo sapiens, Mast cell, low cell density, 3 pt.
Setting [13] is: Homo sapiens, Mast cell, low cell density CHMC, tryptase readout, 3 pt, read-out: LD Tryptase, CHMC, IgE, 3 pt.
Where [14] appears, read: Homo sapiens, Mast cell, low cell density CHMC, tryptase readout, 3 pt.

pIC50: −log10 of the molar value. Where only a bound is given, the exact number is not on record here.

Turning to `CN1CCOc2cc(Nc3nc(Nc4ccc(-c5cnco5)cc4)ncc3F)ccc21` [Compound 229], the pIC50 in assay [1] (setting [3]) was above 5.00; in assay [1] (setting [4]), above 5.00; in assay [2] (setting [5]), below 5.00.

Turning to `COC(=O)Cn1ccc2ccc(Nc3ncc(F)c(Nc4ccc5c(c4)OCCO5)n3)cc21` [Compound 642, N4-(3,4-Ethylenedioxyphenyl)-5-fluoro-N2-[1-(methoxycarbonylmethylene)indol-6-yl]-2,4-pyrimidinediamine], the pIC50 in assay [1] (setting [6]) is above 5.00; in assay [1] (setting [7]) it was above 5.00; in assay [2] (setting [8]), below 5.00.

In the case of `CC(=O)OCCCn1ncc2cc(Nc3ncc(F)c(Nc4ccc(Cl)c(Cl)c4)n3)ccc21` [Compound 787, N2-[1-(3-Acetyloxypropyl)indazol-5-yl]-N4-(3,4-dichlorophenyl)-5-fluoro-2,4-pyrimidinediamine], the figures for the pIC50 in assay [1] (setting [3]), in assay [1] (setting [4]) and in assay [2] (setting [5]) were above 5.00, above 5.00 and below 5.00, respectively.

Consider `CCn1ncc2cc(Nc3ncc(F)c(Nc4ccc(Cl)c(Cl)c4)n3)ccc21` [Compound 695, N4-(3,4-Dichlorophenyl)-N2-(1-ethylindazol-5-yl)-5-fluoro-2,4-pyrimidinediamine], for which the pIC50 in assay [1] (setting [9]) and in assay [2] (setting [10]) was below 5.00 throughout.

`CC(=O)N1CCN(c2ccc(Nc3ncc(F)c(Nc4ccc5c(c4)OCCO5)n3)cc2)CC1` [Compound 427, N2-[4-(4-Acetylpiperazino)phenyl]-N4-(3,4-ethylenedioxyphenyl)-5-fluoro-2,4-pyrimidinediamine]: the pIC50 in assay [1] (setting [9]) is above 5.00; in assay [1] (Homo sapiens, Mast cell, low cell density CHMC, tryptase, 8 pt, read-out: LD Tryptase, CHMC, IgE, 8 pt), above 5.00; in assay [2] (setting [10]), below 5.00.

Consider `CC1(C)Oc2ccc(Nc3nc(Nc4cc(-c5ncco5)cc(C(F)(F)F)c4)ncc3F)cc2NC1=O` [Compound 521, N4-(2,2-Dimethyl-3-oxo-4H-benz[1,4]oxazin-6-yl)-5-fluoro-N2-[3-(oxazol-2-yl)-5-trifluoromethylphenyl]-2,4-pyrimidinediamine], for which the pIC50 in assay [1] (setting [11]) is above 5.00; in assay [2] (setting [12]), below 5.00.

In the case of `COC(=O)CN(c1ccc2c(c1)OCCO2)c1nc(Nc2cc(OC)cc(OC)c2)ncc1F` [Compound 442], the pIC50 in assay [1] (setting [9]) is above 5.00; in assay [2] (setting [10]), below 5.00.

For `CNC(=O)c1ccc(Nc2ncc(F)c(Nc3ccc(Cl)c(C(=O)NC)c3)n2)cc1Cl` [Compound 478, N2-[3-Chloro-4-(N-methylamino)carbonylphenyl]-N4-[4-chloro-3-(N-methylamino)carbonylphenyl]-5-fluoro-2,4-pyrimidinediamine], the pIC50 is above 5.00 in assay [1] (setting [11]) and below 5.00 in assay [2] (setting [12]).

For the molecule `COc1cc(Nc2nc(Nc3ccc(N4CCN(C(C)=O)CC4)cc3)ncc2F)cc(OC)c1` [Compound 437], the pIC50 in assay [1] (setting [9]) was above 5.00; in assay [2] (setting [10]) it was below 5.00.

With `COc1cc(Nc2ncc(F)c(N(C)c3ccc(OC)c(Cl)c3)n2)cc(OC)c1` [Compound 577], the pIC50 in assay [1] (Homo sapiens, Mast cell, low cell density CHMC, tryptase release, 3 point, read-out: LD Tryptase, CHMC, IgE, 3 pt) was above 5.00; in assay [2] (Homo sapiens, Mast cell, low cell density CHMC, tryptase release, 3 point), below 5.00.

As for `CC1(C)Oc2ccc(Nc3nc(Nc4ccc(-c5ncco5)cc4)ncc3F)cc2NC1=O` [Compound 1011, N4-(2,2-Dimethyl-3-oxo-4H-benz[1,4]oxazin-6-yl)-5-fluoro-N2-[4-(oxazol-2-yl)phenyl]-2,4-pyrimidinediamine], the pIC50 in assay [1] (setting [13]) is above 5.00; in assay [1] (Homo sapiens, Mast cell, low cell density CHMC, tryptase readout, 8 pt, read-out: LD Tryptase, CHMC, IgE, 8 pt) it was above 5.00; in assay [2] (setting [14]) it was below 5.00.

For `CCOC(=O)N1CCN(c2cccc(Nc3ncc(F)c(Nc4cc(C(C)(C)C)[nH]n4)n3)c2)CC1` [Compound 1101, N4-(5-tert-Butyl-1H-pyrazol-3-yl)-N2-[3-(4-ethoxycarbonylpiperazino)phenyl]-5-fluoro-2,4-pyrimidinediamine], the pIC50 in assay [1] (setting [13]) was above 5.00; in assay [2] (setting [14]), below 5.00.

On to `COCCn1ncc2cc(Nc3ncc(F)c(Nc4ccc(Cl)c(Cl)c4)n3)ccc21` [Compound 771, N4-(3,4-Dichlorophenyl)-5-fluoro-N2-[1-(2-methoxyethyl)indazol-5-yl]-2,4-pyrimidinediamine], for which the results for the pIC50 in assay [1] (setting [3]), in assay [1] (setting [4]) and in assay [2] (setting [5]) were above 5.00, above 5.00 and below 5.00, respectively.

As to `COC(=O)CN(c1ccc2c(c1)OCCO2)c1nc(Nc2ccc(-c3ncco3)cc2)ncc1F` [Compound 445], the pIC50 in assay [1] (setting [9]) was above 5.00; in assay [2] (setting [10]), below 5.00.

On to `CNS(=O)(=O)c1ccc(Nc2ncc(F)c(Nc3cc(OC)cc(OC)c3)n2)cc1OC` [Compound 495, N4-(3,5-Dimethoxyphenyl)-5-fluoro-N2-[3-methoxyphenyl-4-(methylamino)sulfonyl]-2,4-pyrimidinediamine], for which the pIC50 in assay [1] (low cell density, 3 pt, read-out: LD Tryptase, CHMC, IgE, 3 pt) was above 5.00; in assay [2] (low cell density, 3 pt), below 5.00.

`CNC(=O)COc1ccc(Nc2nc(Nc3ccc4c(ccn4CC(=O)OC)c3)ncc2F)cc1Cl` [Compound 644, N4-[3-Chloro-4-(N-methylamino)carbonylmethyleneoxyphenyl]-5-fluoro-N2-[1-(methoxycarbonylmethylene)indol-5-yl]-2,4-pyrimidinediamine]: the pIC50 was above 5.00 in assay [1] (setting [6]), above 5.00 in assay [1] (setting [7]) and below 5.00 in assay [2] (setting [8]).

With `CC(=O)N1CCN(c2ccc(Nc3ncc(F)c(NC4CN(C(=O)OC(C)(C)C)C4)n3)cc2)CC1` [Compound 1119, N2-[4-(4-Acetylpiperazino)phenyl]-N4-(1-tert-butoxycarbonylazetidin-3-yl)-5-fluoro-2,4-pyrimidinediamine], the pIC50 is above 5.00 in assay [1] (setting [9]) and below 5.00 in assay [2] (setting [10]).

`CNC(=O)c1ccc(Nc2ncc(F)c(N(C)c3ccc(OC)c(OC)c3)n2)cc1Cl` [Compound 474, N2-[3-Chloro-4-(N-methylamino)carbonylphenyl]-N4-(3,4-dimethoxyphenyl)-5-fluoro-N4-methyl-2,4-pyrimidinediamine]: the pIC50 in assay [1] (setting [11]) is above 5.00; in assay [2] (setting [12]) it was below 5.00.

Consider `O=C(Nc1ccc(Nc2ncc(F)c(NC3CCCC3)n2)cc1)c1ccccc1` [Compound 1170, N2-(4-Benzamidophenyl)-N4-cyclopentyl-5-fluoro-2,4-pyrimidinediamine], for which the pIC50 in assay [1] (setting [9]) is above 5.00; in assay [2] (setting [10]), below 5.00.

Take `COCCn1ncc2cc(Nc3ncc(F)c(Nc4ccc(F)c(OC)c4)n3)ccc21` [Compound 774, 5-Fluoro-N4-(4-fluoro-3-methoxyphenyl)-N2-[1-(2-methoxyethyl)indazol-5-yl]-2,4-pyrimidinediamine]: the pIC50 in assay [1] (setting [3]) is above 5.00; in assay [1] (setting [4]) it was above 5.00; in assay [2] (setting [5]) it was below 5.00.

Regarding `OCCOc1ccc(Nc2nc(Nc3ccc4cc[nH]c4c3)ncc2F)cc1Cl` [Compound 632, N4-[3-Chloro-4-(2-hydroxyethyleneoxy)phenyl]-5-fluoro-N2-(indol-6-yl)-2,4-pyrimidinediamine], the pIC50 in assay [1] (setting [6]) is above 5.00; in assay [1] (setting [7]), above 5.00; in assay [2] (setting [8]), below 5.00.

As for `CCOC(=O)N1CCN(c2ccc(Nc3ncc(F)c(NC4CN(C(=O)OC(C)(C)C)C4)n3)cc2)CC1` [Compound 1122], the pIC50 was above 5.00 in assay [1] (setting [9]) and below 5.00 in assay [2] (setting [10]).

Consider `COCCn1ncc2ccc(Nc3ncc(F)c(Nc4ccc(Cl)c(Cl)c4)n3)cc21` [Compound 775, N4-(3,4-Dichlorophenyl)-5-fluoro-N2-[1-(2-methoxyethyl)indazol-6-yl]-2,4-pyrimidinediamine], for which the results for the pIC50 in assay [1] (setting [3]), in assay [1] (setting [4]) and in assay [2] (setting [5]) were above 5.00, above 5.00 and below 5.00, respectively.

For the origin of these results see patent publication US20220073536A1 (Rigel Pharmaceuticals, Inc., priority 2003, published 2022).
